Data published in ChEMBL document CHEMBL1201862, “PubChem BioAssay data set” (2004).
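Test compounds were applied to cells in 96-well plates for 48 hours at 5 doses. At the GI50, growth is halved.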 Active and inactive are the calls of the source. Rule as the data show it: active = GI50 up to about 1.1 µM and inactive = higher.

Legend:
Test in all cases: growth of human tumour cells (NCI), 48 h
[1] = system: OVCAR-4
[2] = system: NCI-H23
[3] = system: EKVX
[4] = system: SNB-75
[5] = system: OVCAR-3
[6] = system: SK-MEL-5
[7] = system: SF-295
[8] = system: HL-60
[9] = system: HOP-62
[10] = system: A498
[11] = system: OVCAR-8
[12] = system: RXF 393
[13] = system: UACC-257
[14] = system: M19-MEL
[15] = system: KM12
[16] = system: NCI-H460
[17] = system: MOLT-4
[18] = system: U-251
[19] = system: HT-29
[20] = system: K562
[21] = system: KM-20L2
[22] = system: NCI-H522
[23] = system: SF-268
[24] = system: UO-31
[25] = system: Malme-3M
[26] = system: SNB-19
[27] = system: HCC 2998
[28] = system: DMS-114
[29] = system: RPMI-8226
[30] = system: COLO 205
[31] = system: ACHN
[32] = system: SNB-78
[33] = system: HOP-92
[34] = system: SW-620
[35] = system: TK-10
[36] = system: SK-MEL-28
[37] = system: SN12C
[38] = system: CCRF-CEM
[39] = system: A549
[40] = system: SK-OV-3
[41] = system: M14
[42] = system: HOP-18
[43] = system: DMS-273
[44] = system: HCT-116
[45] = system: IGROV-1
[46] = system: UACC-62
[47] = system: 786-0
[48] = system: OVCAR-5
[49] = system: LOX IMVI
[50] = system: SK-MEL-2
[51] = system: NCI-H226
[52] = system: HCT-15
[53] = system: LXFL 529
[54] = system: SF-539
[55] = system: DLD-1

## Cc1cc(O)nc(CNC(=O)c2cccc(C(=O)NCc3cc(O)nc(C)n3)c2)n1
[1]
  GI50: > 100 µM (inactive)
[2]
  GI50: > 100 µM (inactive)
[3]
  GI50: > 100 µM (inactive)
[4]
  GI50: > 100 µM (inactive)
[5]
  GI50: > 100 µM (inactive)
[6]
  GI50: > 100 µM (inactive)
[7]
  GI50: > 100 µM (inactive)
[8]
  GI50: > 100 µM (inactive)
[9]
  GI50: > 100 µM (inactive)
[10]
  GI50: > 100 µM (inactive)
[11]
  GI50: > 100 µM (inactive)
[12]
  GI50: > 100 µM (inactive)
[13]
  GI50: > 100 µM (inactive)
[14]
  GI50: > 100 µM (inactive)
[15]
  GI50: > 100 µM (inactive)
[16]
  GI50: > 100 µM (inactive)
[17]
  GI50: > 100 µM (inactive)
[18]
  GI50: > 100 µM (inactive)
[19]
  GI50: > 100 µM (inactive)
[20]
  GI50: > 100 µM (inactive)
[21]
  GI50: > 100 µM (inactive)
[22]
  GI50: > 100 µM (inactive)
[23]
  GI50: > 100 µM (inactive)
[24]
  GI50: > 100 µM (inactive)
[25]
  GI50: > 100 µM (inactive)
[26]
  GI50: > 100 µM (inactive)
[27]
  GI50: > 100 µM (inactive)
[28]
  GI50: > 100 µM (inactive)
[29]
  GI50: > 100 µM (inactive)
[30]
  GI50: > 100 µM (inactive)
[31]
  GI50: > 100 µM (inactive)
[32]
  GI50: > 100 µM (inactive)
[33]
  GI50: > 100 µM (inactive)
[34]
  GI50: > 100 µM (inactive)
[35]
  GI50: > 100 µM (inactive)
[36]
  GI50: > 100 µM (inactive)
[37]
  GI50: > 100 µM (inactive)
[38]
  GI50: > 100 µM (inactive)
[39]
  GI50: > 100 µM (inactive)
[40]
  GI50: > 100 µM (inactive)
[41]
  GI50: > 100 µM (inactive)
[42]
  GI50: 68.5 µM (inactive)
[43]
  GI50: > 100 µM (inactive)
[44]
  GI50: > 100 µM (inactive)
[45]
  GI50: > 100 µM (inactive)
[46]
  GI50: > 100 µM (inactive)
[47]
  GI50: > 100 µM (inactive)
[48]
  GI50: > 100 µM (inactive)
[49]
  GI50: > 100 µM (inactive)
[50]
  GI50: > 100 µM (inactive)
[51]
  GI50: > 100 µM (inactive)
[52]
  GI50: > 100 µM
[53]
  GI50: > 100 µM (inactive)
[54]
  GI50: > 100 µM (inactive)
[55]
  GI50: > 100 µM (inactive)
